Laboratory results as given in patent publication US9125430B2, “Stable and bioavailable compositions of isomers of carotenoids for skin and hair” (Nestec S.A., priority 2006, dated 2015).

Test: Stability of pure lycopene isomers in n-hexane during storage at room temperature
Assay type: physicochemical
Conditions: for concentration 5-Z / concentration 9-Z / concentration 13-Z / concentration all E / concentration x-Z: n-hexane; for transformation pathway during storage: storage in n-hexane
Method: Pure 5-Z, 9-Z, 13-Z and all-E lycopene were isolated from isomerised tomato oleoresin (submitted to 1 hour heating), by collecting the fractions containing the corresponding peaks after HPLC separation (see below the experimental conditions). Peaks were collected during two consecutive HPLC runs and the corresponding fractions were pooled.
Amount of total lycopene was determined by reverse phase HPLC on a C18 precolumn (ODS Hypersil, 5 μm, 20×4 mm; Hewlett Packard, Geneva, Switzerland) and a C18 column (Nova pak, 3.9 μm i.d.×300 mm length, Millipore, Volketswil, Switzerland). […] The mobile phase flow rate was 1.5 mL/min. Lycopene isomer profiles were determined by normal phase HPLC according to the method described by Schierle et al. (1997). Food. Chem. 59: 459. Samples of isomerized oleoresins were dissolved in n-hexane containing 50 ppm BHT and spun at maximum speed in an Eppendorf Lab centrifuge. The resulting supernatants were immediately analyzed by HPLC. The HPLC system used was a 1100 series Hewlett-Packard model equipped with an ultraviolet-visible photodiode array detector. Data were simultaneously acquired at 470 nm, 464 nm, 346 nm and 294 nm. Samples (10 μl) were separated using a combination of three Nucleosil 300-5 columns (4 mm internal diameter×250 mm length, Macherey-Nagel). […] Flow rate was 0.8 mL/min. Lycopene Z-isomers were identified according to literature data.
Amounts of lycopene isomers were calculated based on surface areas of the HPLC peaks using the same extinction coefficient as the all-E lycopene. Therefore, the lycopene concentration in products containing Z-isomers is slightly underestimated since it is recognized that the extinction coefficients of Z-isomers are lower than that of the all-E isomer. Conditions for Stability Tests
Stability of lycopene isomers was investigated both in n-hexane and in a tomato oleoresin isomerized by 4 hour heating in ethyl acetate. For this purpose, pure lycopene isomers were stored for 33 days in n-hexane at room temperature and in the absence of light, and the isomerized tomato oleoresin was kept for 55 days at room temperature in the absence of light. Total lycopene concentration and lycopene isomer profiles were measured at various time intervals during the storage.

[1] = room temperature, absence of light, 0 days
[2] = room temperature, absence of light, 1 day
[3] = room temperature, absence of light, 2 days
[4] = room temperature, absence of light, 5 days
[5] = room temperature, absence of light, 12 days
[6] = room temperature, absence of light, 33 days

Row | SMILES | concentration 5-Z [1] | concentration all E [1] | concentration x-Z [1] | concentration 5-Z [2] | concentration all E [2] | concentration x-Z [2] | concentration 5-Z [3] | concentration all E [3] | concentration x-Z [3] | concentration 5-Z [4] | concentration all E [4] | concentration x-Z [4] | concentration 5-Z [5] | concentration 9-Z [5] | concentration 13-Z [5] | concentration all E [5] | concentration x-Z [5] | concentration 5-Z [6] | concentration 9-Z [6] | concentration 13-Z [6] | other results
1 | CC(C)=CCC/C(C)=C/C=C/C(C)=C/C=C/C(C)=C/C=C/C=C(C)/C=C/C=C(C)/C=C/C=C(\C)CCC=C(C)C [all-E lycopene] | 0.5 % of total isomers | 97.6 % of total isomers | 0.1 % of total isomers | 1.2 % of total isomers | 86.0 % of total isomers | 1.5 % of total isomers | 2.6 % of total isomers | 78.4 % of total isomers | 3.0 % of total isomers | 3.8 % of total isomers | 69.3 % of total isomers | 5.1 % of total isomers | 6.4 % of total isomers | 2.0 % of total isomers | 18.2 % of total isomers | 67.8 % of total isomers | 5.6 % of total isomers | 13.4 % of total isomers | 3.8 % of total isomers | 15.7 % of total isomers | concentration 9-Z [1]: 0.5 % of total isomers; concentration 13-Z [1]: 1.4 % of total isomers; concentration 9-Z [2]: 1.2 % of total isomers; concentration 13-Z [2]: 10.1 % of total isomers; concentration 9-Z [3]: 1.1 % of total isomers; concentration 13-Z [3]: 15.0 % of total isomers; concentration 9-Z [4]: 2.2 % of total isomers; concentration 13-Z [4]: 19.6 % of total isomers; concentration all E [6]: 58.7 % of total isomers; concentration x-Z [6]: 8.4 % of total isomers
2 | CC(C)=CCC\C(C)=C/C=C/C(C)=C/C=C/C(C)=C/C=C/C=C(C)/C=C/C=C(C)/C=C/C=C(\C)CCC=C(C)C [5-Z lycopene] | 95.5 % of total isomers | 1.1 % of total isomers | 3.4 % of total isomers | 84.3 % of total isomers | 2.2 % of total isomers | 13.5 % of total isomers | 76.9 % of total isomers | 2.4 % of total isomers | 20.6 % of total isomers | 68.4 % of total isomers | 3.9 % of total isomers | 27.7 % of total isomers | 65.3 % of total isomers | 0.7 % of total isomers | 1.7 % of total isomers | 5.6 % of total isomers | 26.7 % of total isomers | 53.5 % of total isomers | 2.3 % of total isomers | 2.8 % of total isomers | concentration all E [6]: 10.7 % of total isomers; concentration x-Z [6]: 30.7 % of total isomers; transformation pathway during storage: principally transformed into other Z-isomers
3 | CC(C)=CCC/C(C)=C/C=C/C(C)=C\C=C\C(C)=C\C=C\C=C(C)\C=C\C=C(C)\C=C\C=C(/C)CCC=C(C)C [9-Z lycopene] | 1.8 % of total isomers | 4.4 % of total isomers | 0 % of total isomers | 2.1 % of total isomers | 5.8 % of total isomers | 2.8 % of total isomers | 11.6 % of total isomers | 6.0 % of total isomers | 5.9 % of total isomers | 1.5 % of total isomers | 5.6 % of total isomers | 8.6 % of total isomers | 2.3 % of total isomers | 66.5 % of total isomers | 8.2 % of total isomers | 7.0 % of total isomers | 15.9 % of total isomers | 4.1 % of total isomers | 56.0 % of total isomers | 10.5 % of total isomers | concentration 9-Z [1]: 93.3 % of total isomers; concentration 13-Z [1]: 0.6 % of total isomers; concentration 9-Z [2]: 87.1 % of total isomers; concentration 13-Z [2]: 2.3 % of total isomers; concentration 9-Z [3]: 83.5 % of total isomers; concentration 13-Z [3]: 3.1 % of total isomers; concentration 9-Z [4]: 79.2 % of total isomers; concentration 13-Z [4]: 5.2 % of total isomers; concentration all E [6]: 9.8 % of total isomers; concentration x-Z [6]: 19.7 % of total isomers; transformation pathway during storage: principally transformed into other Z-isomers
4 | CC(C)=CCC/C(C)=C/C=C/C(C)=C/C=C/C(C)=C\C=C\C=C(C)\C=C\C=C(C)\C=C\C=C(/C)CCC=C(C)C [13-Z lycopene] | 0 % of total isomers | 2.4 % of total isomers | 1.0 % of total isomers | 0 % of total isomers | 42.6 % of total isomers | 0 % of total isomers | 0 % of total isomers | 59.8 % of total isomers | 1.5 % of total isomers | 1.9 % of total isomers | 68.9 % of total isomers | 4.3 % of total isomers | 5.3 % of total isomers | 2.6 % of total isomers | 20.8 % of total isomers | 65.5 % of total isomers | 5.8 % of total isomers | 11.7 % of total isomers | 4.2 % of total isomers | 16.9 % of total isomers | fraction of the isomer transformed / converted into other isomers (after 33 day storage in n-hexane, room temperature, absence of light): more than 80%; stability compared with the 5-Z, 9-Z and all-E isomers (both stability tests (n-hexane and tomato oleoresin)): much less stable; concentration 9-Z [1]: 0 % of total isomers; concentration 13-Z [1]: 96.6 % of total isomers; concentration 9-Z [2]: 0.4 % of total isomers; concentration 13-Z [2]: 57.0 % of total isomers; concentration 9-Z [3]: 0 % of total isomers; concentration 13-Z [3]: 38.7 % of total isomers; concentration 9-Z [4]: 1.5 % of total isomers; concentration 13-Z [4]: 23.4 % of total isomers; concentration all E [6]: 57.0 % of total isomers; concentration x-Z [6]: 10.2 % of total isomers; transformation pathway during storage: mainly converted into the all-E isomer
